Measurements taken from publication PMC7317212 (Chemmedchem, 2020).

Assays:
[1] = target: T1, mGAT2 (Mus musculus, UniProt P31651); test: [^3H]GABA uptake assay, HEK293 cells expressing mGAT2; format: cell-based; conditions: HEK293; in presence of 100 μM compound
T1 construct: expressed in transfected cells; host or cells: HEK293
T1 sequence (P31651 1-614): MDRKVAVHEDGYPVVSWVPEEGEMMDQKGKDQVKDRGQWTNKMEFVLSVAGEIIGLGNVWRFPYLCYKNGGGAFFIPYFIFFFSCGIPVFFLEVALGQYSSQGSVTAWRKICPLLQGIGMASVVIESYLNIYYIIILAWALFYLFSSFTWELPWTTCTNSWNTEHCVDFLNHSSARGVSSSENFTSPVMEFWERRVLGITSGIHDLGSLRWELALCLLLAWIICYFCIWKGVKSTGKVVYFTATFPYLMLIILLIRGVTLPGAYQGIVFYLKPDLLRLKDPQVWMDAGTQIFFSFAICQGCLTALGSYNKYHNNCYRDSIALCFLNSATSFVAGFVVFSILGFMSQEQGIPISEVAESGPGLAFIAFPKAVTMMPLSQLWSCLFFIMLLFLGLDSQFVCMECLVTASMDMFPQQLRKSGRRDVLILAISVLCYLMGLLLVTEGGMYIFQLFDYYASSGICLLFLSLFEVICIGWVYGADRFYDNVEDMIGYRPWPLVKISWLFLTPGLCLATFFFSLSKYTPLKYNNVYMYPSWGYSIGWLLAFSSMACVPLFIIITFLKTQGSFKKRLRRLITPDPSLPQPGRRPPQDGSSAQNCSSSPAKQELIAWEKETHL
Experimental: (§1) For compounds with pIC50 ([^3H]GABA uptake assay) or pK i (MS Binding Assays) values close to or above 5.0, these experiments were repeated twice and SEM have been calculated.
(§2) [^3H]GABA uptake assays: The [^3H]GABA uptake assays were performed according to Kragler et al.33 Cells were grown in 150 cm^2 plates to a confluence of 70–90 % up to passage 25. After detachment the cells were centrifuged 5 min at 500×g, washed for three times in phosphate buffered saline and, finally, resuspended in Krebs buffer (2.5 mM CaCl2, 1.2 mM MgSO4, 1.2 mM KH2PO4, 4.7 mM KCl, 11 mM glucose, 25 mM Tris, 119 mM NaCl, pH 7.2). The uptake assays were performed with aliquots of the resulting cell suspension (about 100000–200000 cells per well) in a total volume of 250 μl in 96 well 2.2 mL deep well plates. The cells were equilibrated for 25 min in Krebs buffer in the presence of the test compound at 37 °C in a gently shaking water bath. […] After addition of 25 μl of a solution containing [^3H]GABA (2.22 TBq/mmol, ARC, St Louis, MO, USA) and unlabeled GABA in Krebs (final concentration 8 nM [^3H]GABA and 32 nM unlabeled GABA for mGAT1, mGAT3, mGAT4 and 20 nM [^3H]GABA and 20 nM unlabeled GABA for mGAT2) the cells were incubated for further 4 min (mGAT1, mGAT3, mGAT4) or 10 minutes (mGAT2), respectively. The incubation was stopped by filtration through Sartorius MGC micro glass fiber filters pre‐soaked for 1 h in 0.9 % NaCl by means of a Brandell MWXR‐96TI cell harvester (Brandell, Gaithersburg, MD, USA) under reduced pressure. The filters were rinsed two times with cold 0.9 % NaCl and subsequently transferred to 96 well sample plates (Perkin Elmer LAS, Boston, MA, USA). After addition of 200 μl Rotiszint Eco Plus (Roth, Karlsruhe, Germany) per well the radioactivity was determined in a microbeta liquid scintillation counter (Perkin Elmer LAS, Boston, MA, USA). Non‐specific uptake was determined in presence of 10 mM GABA for mGAT1, mGAT3 and mGAT4 or 100 mM GABA for mGAT2, respectively. The results are expressed as means±S.E.M. of at least three separate experiments, each carried out in triplicate.

[2] = target: T2, mGAT3 (Mus musculus, UniProt P31649); test: [^3H]GABA uptake assay, HEK293 cells expressing mGAT3; format: cell-based; conditions: for IC50: [^3H]GABA uptake, pIC50±SEM; for remaining activity at 100 µM: HEK293, in presence of 100 μM compound
T2 construct: expressed in transfected cells; host or cells: HEK293
T2 sequence (P31649 1-602): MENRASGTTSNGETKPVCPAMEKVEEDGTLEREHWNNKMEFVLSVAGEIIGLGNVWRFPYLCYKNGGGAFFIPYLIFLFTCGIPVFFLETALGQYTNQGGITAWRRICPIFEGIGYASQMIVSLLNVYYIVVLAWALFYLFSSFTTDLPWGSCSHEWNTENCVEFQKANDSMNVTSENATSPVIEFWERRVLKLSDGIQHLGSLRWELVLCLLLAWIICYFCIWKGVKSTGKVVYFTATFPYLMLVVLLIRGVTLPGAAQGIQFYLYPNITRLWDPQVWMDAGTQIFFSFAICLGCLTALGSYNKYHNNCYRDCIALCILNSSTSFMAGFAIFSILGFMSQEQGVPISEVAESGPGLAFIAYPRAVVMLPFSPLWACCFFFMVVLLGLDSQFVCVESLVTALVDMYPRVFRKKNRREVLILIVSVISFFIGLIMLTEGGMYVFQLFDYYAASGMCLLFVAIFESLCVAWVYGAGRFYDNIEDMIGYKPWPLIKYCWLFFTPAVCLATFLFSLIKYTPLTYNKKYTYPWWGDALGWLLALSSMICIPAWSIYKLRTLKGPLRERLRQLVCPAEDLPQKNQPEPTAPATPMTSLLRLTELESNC
Experimental: as §1, §2

[3] = target: T3, mGAT1 (Mus musculus, UniProt P31648); test: MS Binding Assay with NO711 as native MS marker; conditions: for Ki: MS Binding Assay, NO711 marker, pKi±SEM, read-out: pK i mGAT1 (converted); for remaining activity at 100 µM: in presence of 100 μM compound, read-out: remaining specific NO711 binding (mGAT1)
T3 construct: expressed in transfected cells; host or cells: HEK293
Experimental: as §1
MS Binding Assays: The MS Binding Assays were performed with mGAT1 membrane preparations obtained from a stably mGAT1 expressing HEK293 cell line and NO711 as unlabeled marker in competitive binding experiments as previously described in detail.34 In short, test compounds were investigated at 7 concentrations in presence of 10 nM NO 711 in competition experiments. Non specific binding was defined as binding remaining in the presence of 100 mM GABA. Incubation was terminated by transfer of 200 μL per well onto a 96‐well filter plate (Acroprep, glass fibre, 1.0 μm, 350 μL, Pall, Dreieich, Germany) with a 12 channel pipette. After rapid vacuum‐filtration the filters were washed with ice cold 0.9 % NaCl (5×150 μL) and dried at 50 °C for 60 min. Afterwards, the filters were eluted with 100 μL methanol containing [^2H10]NO711 (1.4 nM) as internal standard per well into a deep‐well plate by application of vacuum. This step was repeated twice resulting in a total elution volume of 300 μL. Finally, a volume of 130 μL ammonium formate buffer (10 mM, pH 7.0) was added per well and the generated samples analyzed by LC‐ESI‐MS/MS using a API 3200 as described in detail previously.40

[4] = target: T3, mGAT1; test: [^3H]GABA uptake assay, HEK293 cells expressing mGAT1; format: cell-based; conditions: HEK293; in presence of 100 μM compound
Experimental: as §1, §2

[5] = target: T4, mGAT4 (Mus musculus, UniProt P31650); test: [^3H]GABA uptake assay, HEK293 cells expressing mGAT4; format: cell-based; conditions: for IC50: [^3H]GABA uptake, pIC50±SEM; for remaining activity at 100 µM: HEK293
T4 construct: expressed in transfected cells; host or cells: HEK293
T4 sequence (P31650 1-627): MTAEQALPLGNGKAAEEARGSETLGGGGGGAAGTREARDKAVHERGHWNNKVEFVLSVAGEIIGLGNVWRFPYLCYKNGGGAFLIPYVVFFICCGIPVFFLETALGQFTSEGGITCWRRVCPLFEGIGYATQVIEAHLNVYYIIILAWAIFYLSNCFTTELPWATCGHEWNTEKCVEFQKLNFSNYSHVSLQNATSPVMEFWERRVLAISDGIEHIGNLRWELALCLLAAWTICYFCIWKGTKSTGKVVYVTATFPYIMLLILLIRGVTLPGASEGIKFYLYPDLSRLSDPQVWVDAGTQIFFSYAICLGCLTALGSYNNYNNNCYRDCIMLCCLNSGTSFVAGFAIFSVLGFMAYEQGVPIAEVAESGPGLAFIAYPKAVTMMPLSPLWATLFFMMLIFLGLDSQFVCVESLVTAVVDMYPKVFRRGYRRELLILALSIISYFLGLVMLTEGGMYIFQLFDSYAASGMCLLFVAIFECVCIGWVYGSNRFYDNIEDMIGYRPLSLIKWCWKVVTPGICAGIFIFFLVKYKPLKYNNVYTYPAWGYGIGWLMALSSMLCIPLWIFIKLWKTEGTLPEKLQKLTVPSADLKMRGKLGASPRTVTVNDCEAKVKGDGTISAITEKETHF
Experimental: as §1, §2

Row | SMILES | remaining activity at 100 µM [1] [%] | IC50 [2] [µM] | Ki [3] [µM] | remaining activity at 100 µM [4] [%] | IC50 [5] [µM] | remaining activity at 100 µM [2] [%] | remaining activity at 100 µM [3] [%] | remaining activity at 100 µM ([5]; in presence of 100 μM compound) [%] | remaining [^3H]GABA uptake mGAT4 ([5]; in presence of 100 μM compound)
1 | COc1ccc(C(OCCN2CCCC(C(=O)O)C2)(c2ccc(OC)cc2)c2ccc(C(C)=O)cc2)cc1 (racemic) [5 b, rac ‐1‐{2‐[(4‐Acetylphenyl)bis(4‐methoxyphenyl)methoxy]ethyl}piperidine‐3‐carboxylic acid] | 64.2 | 57.5 | 30.9 | 64.6 | 3.72 | – | – | – | –
2 | COc1ccc(C(OCCN2CCCC(C(=O)O)C2)(c2ccc(OC)cc2)c2ccc(S(=O)(=O)N(C)C)cc2)cc1 (racemic) [5 c, rac ‐1‐(2‐{[4‐(N,N‐dimethylsulfamoyl)phenyl]bis[4‐methoxyphenyl]‐methoxy}ethyl)piperidine‐3‐carboxylic acid] | 78 | – | – | 67.9 | > 100 | 77.1 | 62.1 | 82 | –
3 | COc1ccc(C(OCCN2CCCC(C(=O)O)C2)(c2ccc(OC)cc2)c2ccc3nccn3c2)cc1 (racemic) [5 d, rac‐ 1‐(2‐{Imidazo[1,2‐a]pyridin‐6‐ylbis(4‐methoxyphenyl)methoxy}‐ethyl)piperidine‐3‐carboxylic acid] | 72.9 | – | 93.3 | 84.9 | 26.3 | 81.8 | – | – | –
4 | COc1ccc(C(OCCN2CCCC(C(=O)O)C2)(c2ccc(OC)cc2)c2ccc(C(=O)O)cc2)cc1 (racemic) [5 e, rac ‐1‐{2‐[(4‐Carboxyphenyl)bis(4‐methoxyphenyl)methoxy]ethyl}piper‐idine‐3‐carboxylic acid] | 85.2 | 57.5 | – | 96.5 | 13.8 | – | 71.4 | – | –
5 | COCc1ccc(C(OCCN2CCCC(C(=O)O)C2)(c2ccc(OC)cc2)c2ccc(OC)cc2)cc1 (racemic) [5 f, rac ‐1‐(2‐{[4‐(Methoxymethyl)phenyl]bis[4‐methoxyphenyl]methoxy}‐ethyl)piperidine‐3‐carboxylic acid] | 72.7 | 30.9 | – | 67.1 | 3.8 | – | 89.4 | – | –
6 | COc1ccc(C(OCCN2CCCC(C(=O)O)C2)(c2ccc(C#N)cc2)c2ccc(OC)cc2)cc1 (racemic) [5 g, rac ‐1‐{2‐[(4‐Cyanophenyl)bis(4‐methoxyphenyl)methoxy]ethyl}piperidine‐3‐carboxylic acid] | 82.9 | 49 | 39.8 | 74.8 | 8.51 | – | – | – | –
7 | COCc1ccc(C(OCCN2CCCC(C(=O)O)C2)(c2ccc(COC)cc2)c2ccc(OC)cc2)cc1 (racemic) [5 h, rac‐ 1‐(2‐{Bis[4‐(methoxymethyl)phenyl][4‐methoxyphenyl]methoxy}‐ethyl)piperidine‐3‐carboxylic acid] | 55.2 | – | – | 70.5 | 17 | 52.2 | 74.1 | – | –
8 | COCc1ccc(C(OCCN2CCCC(C(=O)O)C2)(c2ccc(COC)cc2)c2ccc(COC)cc2)cc1 (racemic) [5 i, rac‐ 1‐(2‐{Tris[4‐(methoxymethyl)phenyl]methoxy}ethyl)piperidine‐3‐carboxylic acid] | 72.6 | – | – | 90.7 | – | 68.3 | 92.7 | 76.1 | –
9 | COc1ccc(C(OCCN2CCCC(C(=O)O)C2)(c2ccc(OC)cc2)c2ccc(C(N)=O)cc2)cc1 (racemic) [5 j, rac ‐1‐{2‐[(4‐Carbamoylphenyl)bis(4‐methoxyphenyl)methoxy]ethyl}‐piperidine‐3‐carboxylic acid] | 96.1 | – | – | 79.6 | > 100 | 82.1 | 87 | 65.2 | –
10 | COc1ccc(C(OCCN2CCCC(C(=O)O)C2)(c2ccc(CNc3ccc(C(=O)O)cc3)cc2)c2ccc(OC)cc2)cc1 (racemic) [5 t, rac‐ 1‐{2‐[(4‐{[(4‐Carboxyphenyl)amino]methyl}phenyl)bis(4‐methoxy‐phenyl)methoxy]ethyl}piperidine‐3‐carboxylic acid] | – | – | – | 99.5 | – | 96 | 54.1 | 50 | 50,0%
